Where “and” joins values, the source holds several entries; their conditions need not be identical. Equal entries are not always repeated. Where two headings read alike, the source gives them in different places.
Assays:
[1] = Plasma milrinone levels (HPLC) during inhaled milrinone after CF-LVAD implantation; assay type: in vivo, human; settings: for concentration at 0 h / concentration at 1 h / concentration at 4 h / concentration at 8 h / concentration at 12 h / concentration at 24 h: human, plasma, inhaled, 6 mg/h
Method: Blood samples to determine plasma milrinone levels were obtained at baseline, 1, 4, 8, 12 and 24 hours after initiation of inhaled milrinone. Plasma milrinone levels were determined by ultra-violet high liquid chromatography (HPLC) method [14].
Delivery of inhaled milrinone was initiated five minutes before the first weaning attempt from cardiopulmonary bypass after LVAD implantation in the operating suite. […] Prior to initiation of inhaled milrinone, blood samples were obtained and analyzed for baseline plasma levels of milrinone. Patient arrival in the ICU immediately after LVAD implantation was defined as ‘time zero.’ Further blood samples to determine plasma milrinone levels were obtained at 1, 4, 8, 12 and 24 hours after arrival to the ICU. […] Patients received inhaled milrinone for a maximum of 24 hours or until the patient was extubated (if less than 24 hours).

[2] = tested on: post-operative CF-LVAD patients; assay: Perioperative hemodynamics (right heart catheterization / indwelling pulmonary artery catheter) with inhaled milrinone; assay type: in vivo, human
Method: (§1) Methods. The present inventors evaluated fixed dose nebulized iMil delivered into a ventilator circuit for 24 hours in 10 post-operative CF-LVAD (HeartMate-II=10) patients. Tolerability (arrhythmias, hypotension and hypersensitivity reaction), efficacy (hemodynamic), pharmacokinetics (plasma milrinone levels) and cost data were collected.
(§2) Secondary end points were designed to assess the efficacy, cost effectiveness and pharmacokinetic profile of inhaled milrinone therapy. Efficacy endpoints included hospital and intensive care unit (ICU) length of stay, days on inotropes, mortality at 30 days and changes in right ventricular stroke work index (RSVWi) and right heart catheterization and echocardiographic parameters from baseline values. Right heart catheterization was performed during the hospitalization before LVAD implantation and included the following parameters: right atrial pressure (RAP), mean pulmonary artery pressure (mPAP), pulmonary artery systolic pressure (PASP), cardiac index (CI) and cardiac output (CO). Echocardiographic data was collected retrospectively from echocardiograms closest to LVAD implantation date (studies performed >1 month before surgery were not included) and prospectively obtained within 72 hours after LVAD implantation. Echocardiographic parameters included: left ventricular end diastolic volume (LVEDV), left ventricular end diastolic dimension (LVEDd), cardiac output (CO), PASP, qualitative RV function, and tricuspid annular plane systolic excursion (TAPSE).
Delivery of inhaled milrinone was initiated five minutes before the first weaning attempt from cardiopulmonary bypass after LVAD implantation in the operating suite. Intraoperative transesophageal echocardiography was performed and analyzed by a single cardiac anesthesiologist, certified in the interpretation of intraoperative echocardiography. Prior to initiation of inhaled milrinone, blood samples were obtained and analyzed for baseline plasma levels of milrinone. Patient arrival in the ICU immediately after LVAD implantation was defined as ‘time zero.’ Further blood samples to determine plasma milrinone levels were obtained at 1, 4, 8, 12 and 24 hours after arrival to the ICU. Hemodynamic values from indwelling pulmonary artery catheter and routine vital signs were also obtained at 1, 4, 8, 12 and 24 hour intervals. Patients received inhaled milrinone for a maximum of 24 hours or until the patient was extubated (if less than 24 hours). Final hemodynamic values were obtained 1 hour after extubation or cessation of inhaled milrinone therapy. All patients underwent a transthoracic echocardiogram 48-72 hours after cessation of inhaled milrinone.

[3] = tested on: post-operative CF-LVAD patients; assay: Tolerability / safety primary end point of inhaled milrinone (arrhythmias, hypotension, hypersensitivity, death); assay type: in vivo; settings: for Death while receiving inhaled milrinone therapy: 10 patients
Method: as §1
The primary end point was safety, which included documentation of 1) new atrial arrhythmias, lasting greater than 30 seconds or resulting in hemodynamic instability (mean arterial pressure (MAP)<60 mmHg or requiring medical intervention) 2) sustained ventricular tachycardia (VT) lasting greater than 30 seconds, not related to an LVAD suction event or any ventricular arrhythmia resulting in hemodynamic instability (sustained hypotension with a MAP <60 mmHg not related to secondary causes such as acute blood loss or tamponade) and 3) hypersensitivity reaction to milrinone leading to systemic hypotension (MAP<60 mmHg or requiring medical intervention), bronchospasm or rash 4) Death by 30 days.

[4] = tested on: post-operative CF-LVAD patients; assay: Echocardiographic parameters before vs after LVAD implantation with inhaled milrinone; assay type: in vivo, human
Method: Secondary end points were designed to assess the efficacy, cost effectiveness and pharmacokinetic profile of inhaled milrinone therapy. […] Right heart catheterization was performed during the hospitalization before LVAD implantation and included the following parameters: right atrial pressure (RAP), mean pulmonary artery pressure (mPAP), pulmonary artery systolic pressure (PASP), cardiac index (CI) and cardiac output (CO). […] Echocardiographic parameters included: left ventricular end diastolic volume (LVEDV), left ventricular end diastolic dimension (LVEDd), cardiac output (CO), PASP, qualitative RV function, and tricuspid annular plane systolic excursion (TAPSE). Delivery of inhaled milrinone was initiated five minutes before the first weaning attempt from cardiopulmonary bypass after LVAD implantation in the operating suite. Intraoperative transesophageal echocardiography was performed and analyzed by a single cardiac anesthesiologist, certified in the interpretation of intraoperative echocardiography. Prior to initiation of inhaled milrinone, blood samples were obtained and analyzed for baseline plasma levels of milrinone. […] All patients underwent a transthoracic echocardiogram 48-72 hours after cessation of inhaled milrinone.

[5] = tested on: post-operative CF-LVAD patients; assay: Hospital and ICU length of stay, days on inotropes; assay type: in vivo, human; settings: inhaled milrinone group
Method: as §2

[6] = Characterization of inhaled milrinone: nebulization degradation profile (mass spectrometry); assay type: physicochemical; settings: vibrating mesh nebulizer connected to a mechanical ventilator circuit
Method: Inhaled milrinone validation studies were performed in order to characterize inhaled milrinone aerosol particle size, evaluate nebulization degradation profile, and quantify drug delivery using a vibrating mesh nebulizer connected to a mechanical ventilator circuit. […] A pharmaceutical grade impactor was used to determine median aerodynamic particle size and HPLC was used to determine the amount of milrinone collected at the distal end of the experimental endotracheal tube [15]. Based on this analysis, we prepared a solution of milrinone diluted in 0.9% saline to a final concentration of 0.5 mg/ml to be delivered via continuous infusion by an Alaris® infusion pump set at a fixed rate of 12 ml/hr connected to an Areogen Solo (Aeroneb,® Galway, Ireland) vibrating mesh nebulizer and Aeroneb Pro-X nebulizer control unit (Aerogen, Galway, Ireland). The nebulizer was connected to a mechanical ventilator (Servo-I, Maquet Inc. Wayne N.J.) with a dual heated wire ventilator circuit (Teleflex Hudson RCI, Research Triangle Park, N.C.) proximal to the heated humidifier (Teleflex Hudson Neptune, Research Triangle Park, N.C.). Despite continuous nebulization, delivery of the aerosolized drug product occurred in an ‘intermittent-continuous’ fashion based on the mechanical ventilator respiratory rate. All inhaled milrinone product was administered by a licensed respiratory therapist.

[7] = literature refs [17, 18]; cited from earlier work
[8] = while on inhaled milrinone therapy, p<0.009

Cc1[nH]c(=O)c(C#N)cc1-c1ccncc1 [inhaled milrinone, milrinone]
Mean plasma milrinone levels at baseline ([1]; baseline, fixed dose nebulized iMil, 10 post-operative CF-LVAD patients): 74.2 ± 35.4 ng/mL
concentration at 0 h ([1]; Table 3 mean of patients, 0 hrs, read-out: Plasma milrinone level, Mean, 0 hrs): 114 ng/mL
concentration at 1 h ([1]; Table 3 mean of patients, 1 hrs, read-out: Plasma milrinone level, Mean, 1 hrs): 133 ng/mL
concentration at 4 h ([1]; Table 3 mean of patients, 4 hrs, read-out: Plasma milrinone level, Mean, 4 hrs): 149 ng/mL
concentration at 8 h ([1]; Table 3 mean of patients, 8 hrs, read-out: Plasma milrinone level, Mean, 8 hrs): 213 ng/mL
concentration at 12 h ([1]; Table 3 mean of patients, 12 hrs, read-out: Plasma milrinone level, Mean, 12 hrs): 176 ng/mL
concentration at 24 h ([1]; Table 3 mean of patients, 24 hrs, read-out: Plasma milrinone level, Mean, 24 hrs): 173 ng/mL
concentration at 0 h ([1]; Table 3 median of patients, 0 hrs, read-out: Plasma milrinone level, Median, 0 hrs): 75 ng/mL
concentration at 1 h ([1]; Table 3 median of patients, 1 hrs, read-out: Plasma milrinone level, Median, 1 hrs): 114 ng/mL
concentration at 4 h ([1]; Table 3 median of patients, 4 hrs, read-out: Plasma milrinone level, Median, 4 hrs): 117 ng/mL
concentration at 8 h ([1]; Table 3 median of patients, 8 hrs, read-out: Plasma milrinone level, Median, 8 hrs): 227 ng/mL
concentration at 12 h ([1]; Table 3 median of patients, 12 hrs, read-out: Plasma milrinone level, Median, 12 hrs): 160 ng/mL
concentration at 24 h ([1]; Table 3 median of patients, 24 hrs, read-out: Plasma milrinone level, Median, 24 hrs): 137 ng/mL
concentration at 1 h ([1]; 1 hour, read-out: Mean plasma milrinone levels at 1 hour): 111 ± 70.9 ng/mL
concentration at 4 h ([1]; 4 hour, read-out: Mean plasma milrinone levels at 4 hour): 136 ± 41.5 ng/mL
concentration at 8 h ([1]; 8 hour, read-out: Mean plasma milrinone levels at 8 hour): 205 ± 86.7 ng/mL
concentration at 12 h ([1]; 12 hour, read-out: Mean plasma milrinone levels at 12 hour): 177 ± 61.3 ng/mL
concentration at 24 h ([1]; 24 hour, read-out: Mean plasma milrinone levels at 24 hour): 188 ± 106 ng/mL
Plasma milrinone level, 0 hrs ([1]; individual patients 1-10, 0 hrs, inhaled milrinone 0.5 mg/ml at 12 ml/hr, prior IV milrinone stopped 6 h (Patient 1) or >12 h before surgery): 69.93 ng/mL and 65.54 ng/mL and 87.08 ng/mL and 138.22 ng/mL and 392.92 ng/mL and 20.85 ng/mL and 80.03 ng/mL and 57.67 ng/mL
Plasma milrinone level, 1 hrs ([1]; individual patients 1-10, 1 hrs, continuous inhaled milrinone 0.5 mg/ml at 12 ml/hr): 239.86 ng/mL and 115.38 ng/mL and 106.94 ng/mL and 111.96 ng/mL and 12.54 ng/mL and 157.04 ng/mL and 326.72 ng/mL and 81.31 ng/mL and 18.53 ng/mL and 158.4 ng/mL
Plasma milrinone level, 4 hrs ([1]; individual patients 1-10, 4 hrs, continuous inhaled milrinone): 113.74 ng/mL and 112.71 ng/mL and 114.96 ng/mL and 92.16 ng/mL and 112.06 ng/mL and 188.04 ng/mL and 267.11 ng/mL and 154.31 ng/mL and 118.34 ng/mL and 216.26 ng/mL
Plasma milrinone level, 8 hrs ([1]; individual patients 1-10, 8 hrs, continuous inhaled milrinone): 268.28 ng/mL and 115.66 ng/mL and 134 ng/mL and 273.14 ng/mL and 91.67 ng/mL and 349.39 ng/mL and 284.52 ng/mL and 158.8 ng/mL and 197.89 ng/mL and 255.72 ng/mL
Plasma milrinone level, 12 hrs ([1]; individual patients 1-10, 12 hrs, continuous inhaled milrinone): 133.77 ng/mL and 152.27 ng/mL and 248.58 ng/mL and 254.31 ng/mL and 89.91 ng/mL and 167.3 ng/mL and 153.12 ng/mL and 205.26 ng/mL
Plasma milrinone level, 24 hrs ([1]; individual patients 1-10, 24 hrs, continuous inhaled milrinone): 117.04 ng/mL and 364.15 ng/mL and 101.94 ng/mL and 100.88 ng/mL and 156.98 ng/mL and 197.73 ng/mL
Plasma milrinone levels during inhaled milrinone therapy (within the accepted therapeutic milrinone range) ([1]; inhaled milrinone therapy, statement in words): 100 to 300 ng/mL
Right Atrial Pressure, mean, Post milrinone ([2]; 1 hour after cessation of inhaled milrinone, Pre-VAD RHC 13.75): 25.75 mmHg
Mean Pulmonary Artery Pressure, mean, Post milrinone ([2]; 1 hour after cessation, Pre-VAD RHC 39.5): 27 mmHg
Pulmonary Artery Systolic Pressure, mean, Post milrinone ([2]; 1 hour after cessation, Pre-VAD RHC 56.33): 38.75 mmHg
Right Atrial Pressure, mean, ICU arrival ([2]; ICU arrival after LVAD implantation, inhaled milrinone started before weaning from bypass, Pre-VAD RHC 13.75): 13.33 mmHg
Mean Pulmonary Artery Pressure, mean, ICU arrival ([2]; ICU arrival, Pre-VAD RHC 39.5): 28.5 mmHg
Pulmonary Artery Systolic Pressure, mean, ICU arrival ([2]; ICU arrival, Pre-VAD RHC 56.33): 36.00 mmHg
Right Atrial Pressure, Mean on milrinone ([2]; during inhaled milrinone, Pre-VAD RHC 13.75): 13.53 mmHg
Mean Pulmonary Artery Pressure, Mean on milrinone ([2]; during inhaled milrinone, Pre-VAD RHC 39.5): 25.88 mmHg
Pulmonary Artery Systolic Pressure, Mean on milrinone ([2]; during inhaled milrinone, Pre-VAD RHC 56.33): 36.25 mmHg
Invasive mean pulmonary artery pressure from baseline to during iMil therapy ([2]; p=0.017): improved
RVSWi, mean, 1 hour after milrinone cessation ([2]; preoperative mean 571, p=0.179): 383 mmHg-mL/m^2
RVSWi, median, 1 hour after milrinone cessation ([2]; preoperative median 453, p=0.179): 326 mmHg-mL/m^2
Death while receiving inhaled milrinone therapy [3]: No deaths occurred
Death while receiving inhaled milrinone therapy ([3]; listed as iMil): not observed
Ventricular tachycardia events, number (%) ([3]; human, in vivo): 3 (30%)
Non-sustained VT, number of patients/events ([3]; human, in vivo, 24 h): 1
Sustained VT, number of patients/events ([3]; human, in vivo, 24 h): 2
Deaths in the study group 30 days after CF-LVAD implantation ([3]; institutional 30 day death rate 12% (12/102), p=0.60): 0/10
Rate of ventricular arrhythmias during inhaled milrinone therapy ([3]; n=3 of 10, INTERMACS data base 36%, p=0.99): 30%
Patients requiring veno-arterial ECMO support ([3]; within hours of LVAD implantation, no absolute cause identified): 1
Qualitative RV function after LVAD implantation vs pre-LVAD implant ([4]; p=0.347): not significantly different
TAPSE after LVAD implantation vs pre-LVAD implant ([4]; p=0.846): not significantly different
LVED volume (echocardiography) after LVAD implantation vs pre-LVAD implant [4, 8]: significant decreases
LVIDd (echocardiography) after LVAD implantation vs pre-LVAD implant [4, 8]: significant decreases
PASP (echocardiography) after LVAD implantation vs pre-LVAD implant [4, 8]: significant decreases
Median ICU length of stay ([5]; institutional 5 days, p=0.49): 5 days
Median total days on inotrope support ([5]; institutional 6 days, p=0.08): 9 days
Median total hospital length of stay ([5]; institutional 28 days, p=0.26): 33 days
New drug formation or degradation products after nebulization (mass spectrometry) [6]: did not identify new drug formation or degradation products
Accepted therapeutic range of plasma milrinone [7]: 100 to 300 ng/mL

Source: patent US20220401360A1, “Milrinone Composition and Method for Administering Same” (Vanderbilt University, priority 2015, published 2022)
